Measurements taken from patent US11149023B2, “Substituted triazole derivatives and uses thereof” (Bayer Pharma Aktiengesellschaft, priority 2017, dated 2021).

Tests used:
human V1a receptor = human V1a receptor (Homo sapiens (Human), UniProt P37288); assay: Cellular in vitro assay for determining vasopressin receptor activity (V1a, aequorin luminescence); assay type: cell-based; settings: for IC50: CHO cell line transfected with human V1a receptor, [Arg8]-vasopressin at EC50 concentration, read-out: IC50 hV1a; for ratio IC50 hV2/hV1a: selectivity, IC50 hV2 divided by IC50 hV1a
human V1a receptor, sequence (P37288 whole entry): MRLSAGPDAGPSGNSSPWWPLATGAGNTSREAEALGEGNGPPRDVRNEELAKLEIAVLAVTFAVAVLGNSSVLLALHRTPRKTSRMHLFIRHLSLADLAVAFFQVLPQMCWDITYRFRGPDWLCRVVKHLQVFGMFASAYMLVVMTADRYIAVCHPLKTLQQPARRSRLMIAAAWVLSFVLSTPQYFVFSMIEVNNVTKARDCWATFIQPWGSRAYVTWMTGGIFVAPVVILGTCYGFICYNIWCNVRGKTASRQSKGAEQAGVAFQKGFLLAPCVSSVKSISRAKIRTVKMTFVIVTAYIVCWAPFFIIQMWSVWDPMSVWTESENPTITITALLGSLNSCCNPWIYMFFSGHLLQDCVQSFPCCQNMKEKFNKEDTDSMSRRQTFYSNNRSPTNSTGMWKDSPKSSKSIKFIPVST

human V2 receptor = human V2 receptor (Homo sapiens (Human), UniProt P30518); assay: Cellular in vitro assay for determining vasopressin receptor activity (V2, CRE-luciferase); assay type: cell-based; settings: CHO cell line transfected with human V2 receptor; [Arg8]-vasopressin at EC50 concentration; read-out: IC50 hV2
human V2 receptor, sequence (P30518 whole entry): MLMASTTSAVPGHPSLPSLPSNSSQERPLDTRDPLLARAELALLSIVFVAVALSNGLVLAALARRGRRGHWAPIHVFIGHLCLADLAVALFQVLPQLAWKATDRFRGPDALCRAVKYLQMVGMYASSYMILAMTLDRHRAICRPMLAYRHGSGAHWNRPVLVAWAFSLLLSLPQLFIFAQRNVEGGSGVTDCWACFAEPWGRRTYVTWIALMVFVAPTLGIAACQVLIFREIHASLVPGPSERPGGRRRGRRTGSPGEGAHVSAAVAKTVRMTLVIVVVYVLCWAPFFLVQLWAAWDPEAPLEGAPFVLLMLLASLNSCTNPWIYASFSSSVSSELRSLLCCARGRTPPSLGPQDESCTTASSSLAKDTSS

Row | IC50 (human V1a receptor) | ratio IC50 hV2/hV1a (human V1a receptor) | IC50 (human V2 receptor) | SMILES
1 | 0.48 nM | – | 53.2 nM | O=C(NC(Cn1c(-c2ccc(Cl)cc2)nn(Cc2ncn(-c3ncccc3Cl)n2)c1=O)C(F)(F)F)C1CS(=O)(=O)C1 (single isomer, unassigned) [Example 39, N-{3-[3-(4-Chlorophenyl)-1-{[1-(3-chloropyridin-2-yl)-1H-1,2,4-triazol-3-yl]methyl}-5-oxo-1,5-dihydro-4H-1,2,4-triazol-4-yl]-1,1,1-trifluoropropan-2-yl}thietane-3-carboxamide 1,1-dioxide]
2 | 4.9 nM | 56.1 | 275 nM | Cl.O=C(NC(Cn1c(-c2ccc(Cl)cc2)nn(Cc2ncn(-c3ncccc3C(F)(F)F)n2)c1=O)C(F)(F)F)[C@@H]1C[C@H](F)CN1 (stereo partly drawn) [Example 71, N-{3-[3-(4-Chlorophenyl)-5-oxo-1-({1-[3-(trifluoromethyl)pyridin-2-yl]-1H-1,2,4-triazol-3-yl}methyl)-1,5-dihydro-4H-1,2,4-triazol-4-yl]-1,1,1-trifluoropropan-2-yl}-4-fluoro-L-prolinamide]
3 | 40.5 nM | 59.3 | 2400 nM | O=C1NCC(C(=O)NC(Cn2c(-c3ccc(Cl)cc3)nn(Cc3ncn(-c4ncccc4Cl)n3)c2=O)C(F)(F)F)N1 (stereo not drawn) [Example 2]
4 | 5.4 nM | – | 305 nM | O=C(NC(Cn1c(-c2ccc(Cl)cc2)nn(Cc2ncn(-c3ncccc3Cl)n2)c1=O)C(F)(F)F)[C@@H]1C[C@H](F)CN1 (mixture of isomers) [Example 48, N-{3-[3-(4-Chlorophenyl)-1-{[1-(3-chloropyridin-2-yl)-1H-1,2,4-triazol-3-yl]methyl}-5-oxo-1,5-dihydro-4H-1,2,4-triazol-4-yl]-1,1,1-trifluoropropan-2-yl}-4-fluoro-prolinamide]
5 | 2.9 nM | 57.6 | 167 nM | O=C1NCCC1C(=O)NC(Cn1c(-c2ccc(Cl)cc2)nn(Cc2ncn(-c3ncccc3Cl)n2)c1=O)C(F)(F)F (stereo not drawn) [Example 51, N-{3-[3-(4-Chlorophenyl)-1-{[1-(3-chloropyridin-2-yl)-1H-1,2,4-triazol-3-yl]methyl}-5-oxo-1,5-dihydro-4H-1,2,4-triazol-4-yl]-1,1,1-trifluoropropan-2-yl}-2-oxopyrrolidine-3-carboxamide]
6 | 3.35 nM | – | 378 nM | O=C(NC(Cn1c(-c2ccc(Cl)cc2)nn(Cc2ncn(-c3ncccc3Cl)n2)c1=O)C(F)(F)F)[C@@H]1C[C@@H](F)CN1 (mixture of isomers) [Example 49, N-{3-[3-(4-Chlorophenyl)-1-{[1-(3-chloropyridin-2-yl)-1H-1,2,4-triazol-3-yl]methyl}-5-oxo-1,5-dihydro-4H-1,2,4-triazol-4-yl]-1,1,1-trifluoropropan-2-yl}-4-fluoro-prolinamide]
7 | 4.9 nM | 50.0 | 245 nM | O=C(NC(Cn1c(-c2ccc(Cl)cc2)nn(Cc2ncn(-c3ncccc3Cl)n2)c1=O)C(F)(F)F)C1COC1 (racemic) [Example 1, N-{3-[3-(4-Chlorophenyl)-1-{[1-(3-chloropyridin-2-yl)-1H-1,2,4-triazol-3-yl]methyl}-5-oxo-1,5-dihydro-4H-1,2,4-triazol-4-yl]-1,1,1-trifluoropropan-2-yl}oxetane-3-carboxamide]

Further lines, the compound ahead of its results:

Row | SMILES | IC50 (human V1a receptor) | ratio IC50 hV2/hV1a (human V1a receptor) | IC50 (human V2 receptor)
8 | O=C(CC(F)(F)F)NC(Cn1c(-c2ccc(Cl)cc2)nn(Cc2ncn(-c3ncccc3C(F)(F)F)n2)c1=O)C(F)(F)F (racemic) [Example 67, N-{3-[3-(4-Chlorophenyl)-5-oxo-1-({1-[3-(trifluoromethyl)pyridin-2-yl]-1H-1,2,4-triazol-3-yl}methyl)-1,5-dihydro-4H-1,2,4-triazol-4-yl]-1,1,1-trifluoropropan-2-yl}-3,3,3-trifluoropropanamide] | 1.15 nM | 49.6 | 57 nM
9 | CS(=O)(=O)CC(=O)NC(Cn1c(-c2ccc(Cl)cc2)nn(Cc2ncn(-c3ncccc3Cl)n2)c1=O)C(F)(F)F (single isomer, unassigned) [Example 45, N-{3-[3-(4-Chlorophenyl)-1-{[1-(3-chloropyridin-2-yl)-1H-1,2,4-triazol-3-yl]methyl}-5-oxo-1,5-dihydro-4H-1,2,4-triazol-4-yl]-1,1,1-trifluoropropan-2-yl}-2-(methylsulfonyl)acetamide] | 235 nM | – | 2300 nM
10 | CC(F)(F)C(=O)NC(Cn1c(-c2ccc(Cl)cc2)nn(Cc2ncn(-c3ncccc3Cl)n2)c1=O)C(F)(F)F (racemic) [Example 9] | 10 nM | 66.0 | 660 nM
11 | CS(=O)(=O)CC(=O)NC(Cn1c(-c2ccc(Cl)cc2)nn(Cc2ncn(-c3ncccc3Cl)n2)c1=O)C(F)(F)F (single isomer, unassigned) [Example 46, N-{3-[3-(4-Chlorophenyl)-1-{[1-(3-chloropyridin-2-yl)-1H-1,2,4-triazol-3-yl]methyl}-5-oxo-1,5-dihydro-4H-1,2,4-triazol-4-yl]-1,1,1-trifluoropropan-2-yl}-2-(methylsulfonyl)acetamide] | 1.35 nM | – | 57.8 nM
12 | CS(=O)(=O)CC(=O)NC(Cn1c(-c2ccc(Cl)cc2)nn(Cc2ncn(-c3ncccc3Cl)n2)c1=O)C(F)(F)F (racemic) [Example 44, N-{3-[3-(4-Chlorophenyl)-1-{[1-(3-chloropyridin-2-yl)-1H-1,2,4-triazol-3-yl]methyl}-5-oxo-1,5-dihydro-4H-1,2,4-triazol-4-yl]-1,1,1-trifluoropropan-2-yl}-2-(methylsulfonyl)acetamide] | 1.75 nM | 68.6 | 120 nM
13 | O=C(NC(Cn1c(-c2ccc(Cl)cc2)nn(Cc2ncn(-c3ncccc3Cl)n2)c1=O)C(F)(F)F)c1ccc(Cl)s1 (racemic) [Example 52, 5-Chloro-N-{3-[3-(4-chlorophenyl)-1-{[1-(3-chloropyridin-2-yl)-1H-1,2,4-triazol-3-yl]methyl}-5-oxo-1,5-dihydro-4H-1,2,4-triazol-4-yl]-1,1,1-trifluoropropan-2-yl}thiophene-2-carboxamide] | 2.8 nM | 167.9 | 470 nM
14 | CC(C)(C)OC(=O)NC1(C(=O)NC(Cn2c(-c3ccc(Cl)cc3)nn(Cc3ncn(-c4ncccc4Cl)n3)c2=O)C(F)(F)F)CCC1 (stereo not drawn) [Example 28, tert-Butyl [1-({3-[3-(4-chlorophenyl)-1-{[1-(3-chloropyridin-2-yl)-1H-1,2,4-triazol-3-yl]methyl}-5-oxo-1,5-dihydro-4H-1,2,4-triazol-4-yl]-1,1,1-trifluoropropan-2-yl}carbamoyl)cyclobutyl]-carbamate] | 1.85 nM | – | 22.5 nM
15 | Cl.O=C(NC(Cn1c(-c2ccc(Cl)cc2)nn(Cc2ncn(-c3ncccc3C(F)(F)F)n2)c1=O)C(F)(F)F)C1NCC1(F)F (stereo not drawn) [Example 69, N-{3-[3-(4-Chlorophenyl)-5-oxo-1-({1-[3-(trifluoromethyl)pyridin-2-yl]-1H-1,2,4-triazol-3-yl}methyl)-1,5-dihydro-4H-1,2,4-triazol-4-yl]-1,1,1-trifluoropropan-2-yl}-3,3-difluoroazetidine-2-carboxamide] | 1.95 nM | 51.8 | 101 nM
16 | O=C(NC(Cn1c(-c2ccc(Cl)cc2)nn(Cc2ncn(-c3ncccc3C(F)(F)F)n2)c1=O)C(F)(F)F)C1CC1(F)F (stereo not drawn) [Example 66, N-{3-[3-(4-Chlorophenyl)-5-oxo-1-({1-[3-(trifluoromethyl)pyridin-2-yl]-1H-1,2,4-triazol-3-yl}methyl)-1,5-dihydro-4H-1,2,4-triazol-4-yl]-1,1,1-trifluoropropan-2-yl}-2,2-difluorocyclopropane-1-carboxamide] | 5.4 nM | 45.4 | 245 nM
17 | O=C(NC(Cn1c(-c2ccc(Cl)cc2)nn(Cc2ncn(-c3ncccc3C(F)(F)F)n2)c1=O)C(F)(F)F)C1CS(=O)(=O)C1 (racemic) [Example 62, N-{3-[3-(4-Chlorophenyl)-5-oxo-1-({1-[3-(trifluoromethyl)pyridin-2-yl]-1H-1,2,4-triazol-3-yl}methyl)-1,5-dihydro-4H-1,2,4-triazol-4-yl]-1,1,1-trifluoropropan-2-yl}-1,1-dioxo-1lambda^6-thietane-3-carboxamide] | 1.6 nM | 103.1 | 165 nM
18 | CC(F)C(=O)NC(Cn1c(-c2ccc(Cl)cc2)nn(Cc2ncn(-c3ncccc3Cl)n2)c1=O)C(F)(F)F (stereo not drawn) [Example 10] | 6.1 nM | 59.8 | 365 nM
